According to patent publication US20120009280A1, “METHOD OF REDUCING THE RATE OF DEGRADATION OF A BIOLOGICAL MATERIAL” (Bio-Energy Ingredients Limited, priority 2009, published 2012):

How the values were obtained:
yeast = assay: Yeast count of spent brewer's / wet distiller's grains stored at ambient temperature; type: cell-based
[1] = pH of suspensions of grain samples in distilled water or PBS; conditions: 1% (w/w) in distilled water
Protocol: The untreated sample (A) was compared visually against the corresponding quicklime-treated sample (B).
On Day 7, 10 g amounts of each sample were suspended in either 90 ml PBS or 90 ml sterile distilled water and shaken for 10 minutes. The pH of each suspension was then measured and compared.
On Day 9, 10 g of each sample was suspended in 90 ml PBS and shaken for 10 minutes. The pH was measured.

mould = assay: Mould count of spent brewer's / wet distiller's grains stored at ambient temperature; type: cell-based
How it was run: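 Wet grain samples were mixed with a powdered treatment agent in a single initial mix, with no later treatment or agitation. Batches and untreated controls were kept under insect-proof screens at ambient temperature. Every seven days, a whole sample from each treatment went to a SANAS-approved microbiological laboratory. Mould counts were determined there following a procedure similar to Rosentrater et al. (2008).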

[2] = 10% Ca-DGO (w/w) granules, week 1
[3] = 10% Ca-DGO (w/w) granules, week 2
[4] = 10% Ca-DGO (w/w) granules, week 3
[5] = 10% Ca-DGO (w/w) granules, week 4
[6] = 10% Ca-DGO (w/w) granules, week 5
[7] = 10% Ca-DGO (w/w) powder, week 1
[8] = 10% Ca-DGO (w/w) powder, week 2
[9] = 10% Ca-DGO (w/w) powder, week 3
[10] = 10% Ca-DGO (w/w) powder, week 4
[11] = 10% Ca-DGO (w/w) powder, week 5
[12] = 20% Ca-DGO (w/w) powder, week 1
[13] = 20% Ca-DGO (w/w) powder, week 2
[14] = 20% Ca-DGO (w/w) powder, week 3
[15] = 20% Ca-DGO (w/w) powder, week 4
[16] = 20% Ca-DGO (w/w) powder, week 5
[17] = 40% Ca-DGO (w/w) powder, week 1
[18] = 40% Ca-DGO (w/w) powder, week 2
[19] = 40% Ca-DGO (w/w) powder, week 3
[20] = 40% Ca-DGO (w/w) powder, week 4
[21] = 40% Ca-DGO (w/w) powder, week 5

[Ca+2].[O-]CC(O)CO.[O-]CC(O)CO [calcium diglyceroxide]
Yeast Count (yeast; [2]): 480 cfu/gram | Yeast Count (yeast; [3]): <10 cfu/gram | Yeast Count (yeast; [4]): <10 cfu/gram | Yeast Count (yeast; [5]): <19 cfu/gram | Yeast Count (yeast; [6]): <10 cfu/gram | Yeast Count (yeast; [7]): <10 cfu/gram | Yeast Count (yeast; [8]): <10 cfu/gram | Yeast Count (yeast; [9]): <10 cfu/gram | Yeast Count (yeast; [10]): <10 cfu/gram | Yeast Count (yeast; [11]): <10 cfu/gram | Yeast Count (yeast; [12]): 10 cfu/gram | Yeast Count (yeast; [13]): 10 cfu/gram | Yeast Count (yeast; [14]): 10 cfu/gram | Yeast Count (yeast; [15]): 10 cfu/gram | Yeast Count (yeast; [16]): 10 cfu/gram | Yeast Count (yeast; [17]): 10 cfu/gram | Yeast Count (yeast; [18]): 10 cfu/gram | Yeast Count (yeast; [19]): 20 cfu/gram | Yeast Count (yeast; [20]): 10 cfu/gram | Yeast Count (yeast; [21]): 10 cfu/gram | pH [1, 2]: 7.88 | pH [1, 3]: 7.71 | pH [1, 4]: 7.44 | pH [1, 5]: 7.14 | pH [1, 6]: 8.37 | pH [1, 7]: 9.43 | pH [1, 8]: 7.32 | pH [1, 9]: 7.31 | pH [1, 10]: 8.01 | pH [1, 11]: 7.23 | pH [1, 12]: 11.47 | pH [1, 13]: 11.16 | pH [1, 14]: 12.00 | pH [1, 15]: 11.23 | pH [1, 16]: 10.83 | pH [1, 17]: 11.66 | pH [1, 18]: 11.50 | pH [1, 19]: 12.30 | pH [1, 20]: 11.52 | pH [1, 21]: 11.13 | Mould Count (mould; [2]): 10 cfu/gram | Mould Count (mould; [3]): <10 cfu/gram | Mould Count (mould; [4]): <10 cfu/gram | Mould Count (mould; [5]): <10 cfu/gram | Mould Count (mould; [6]): <10 cfu/gram | Mould Count (mould; [7]): <10 cfu/gram | Mould Count (mould; [8]): <10 cfu/gram | Mould Count (mould; [9]): <10 cfu/gram | Mould Count (mould; [10]): 310 cfu/gram | Mould Count (mould; [11]): 1020 cfu/gram | Mould Count (mould; [12]): 10 cfu/gram | Mould Count (mould; [13]): 10 cfu/gram | Mould Count (mould; [14]): 10 cfu/gram | Mould Count (mould; [15]): 10 cfu/gram | Mould Count (mould; [16]): 10 cfu/gram | Mould Count (mould; [17]): 10 cfu/gram | Mould Count (mould; [18]): 10 cfu/gram | Mould Count (mould; [19]): 10 cfu/gram | Mould Count (mould; [20]): 10 cfu/gram | Mould Count (mould; [21]): 10 cfu/gram

[Ca+2].[O-2] [CaO powder]
Yeast Count (yeast; dose 5% (w/w), week 0): <10 cfu/gram | Yeast Count (yeast; dose 5% (w/w), week 1): <10 cfu/gram | Yeast Count (yeast; dose 5% (w/w), week 2): <10 cfu/gram | Yeast Count (yeast; dose 5% (w/w), week 3): <10 cfu/gram | Yeast Count (yeast; dose 5% (w/w), week 4): <10 cfu/gram | Yeast Count (yeast; dose 5% (w/w), week 5): <10 cfu/gram | Yeast Count (yeast; dose 5% (w/w), week 6): <10 cfu/gram | Yeast Count (yeast; dose 5% (w/w), week 7): <10 cfu/gram | Yeast Count (yeast; dose 5% (w/w), week 8): <10 cfu/gram | Yeast Count (yeast; dose 5% (w/w), week 9): <10 cfu/gram | Yeast Count (yeast; dose 10% (w/w), week 0): <10 cfu/gram | Yeast Count (yeast; dose 10% (w/w), week 1): <10 cfu/gram | Yeast Count (yeast; dose 10% (w/w), week 2): <10 cfu/gram | Yeast Count (yeast; dose 10% (w/w), week 7): <10 cfu/gram | Yeast Count (yeast; dose 10% (w/w), week 8): <10 cfu/gram | pH ([1]; dose 5% (w/w), week 0): 12.93 | pH ([1]; dose 5% (w/w), week 1): 12.05 | pH ([1]; dose 5% (w/w), week 2): 11.19 | pH ([1]; dose 5% (w/w), week 3): 7.82 | pH ([1]; dose 5% (w/w), week 4): 9.23 | pH ([1]; dose 5% (w/w), week 5): 7.55 | pH ([1]; dose 5% (w/w), week 6): 9.23 | pH ([1]; dose 5% (w/w), week 7): 7.28 | pH ([1]; dose 5% (w/w), week 8): 7.60 | pH ([1]; dose 5% (w/w), week 9): 8.45 | pH ([1]; dose 10% (w/w), week 0): 13.12 | pH ([1]; dose 10% (w/w), week 1): 12.56 | pH ([1]; dose 10% (w/w), week 2): 12.38 | pH ([1]; dose 10% (w/w), week 3): 12.36 | pH ([1]; dose 10% (w/w), week 4): 12.20 | pH ([1]; dose 10% (w/w), week 5): 12.12 | pH ([1]; dose 10% (w/w), week 6): 11.92 | pH ([1]; dose 10% (w/w), week 7): 7.56 | pH ([1]; dose 10% (w/w), week 8): 8.38 | pH ([1]; dose 10% (w/w), week 9): 11.77 | Mould Count (mould; dose 5% (w/w), week 0): <10 cfu/gram | Mould Count (mould; dose 5% (w/w), week 1): <10 cfu/gram | Mould Count (mould; dose 5% (w/w), week 2): <10 cfu/gram | Mould Count (mould; dose 5% (w/w), week 3): <10 cfu/gram | Mould Count (mould; dose 5% (w/w), week 4): <10 cfu/gram | Mould Count (mould; dose 5% (w/w), week 5): <10 cfu/gram | Mould Count (mould; dose 5% (w/w), week 6): <10 cfu/gram | Mould Count (mould; dose 5% (w/w), week 7): <10 cfu/gram | Mould Count (mould; dose 5% (w/w), week 8): <10 cfu/gram | Mould Count (mould; dose 5% (w/w), week 9): <10 cfu/gram | Mould Count (mould; dose 10% (w/w), week 0): <10 cfu/gram | Mould Count (mould; dose 10% (w/w), week 1): <10 cfu/gram | Mould Count (mould; dose 10% (w/w), week 2): <10 cfu/gram | Mould Count (mould; dose 10% (w/w), week 3): <10 cfu/gram | Mould Count (mould; dose 10% (w/w), week 4): <10 cfu/gram | Mould Count (mould; dose 10% (w/w), week 5): <10 cfu/gram | Mould Count (mould; dose 10% (w/w), week 6): <10 cfu/gram | Mould Count (mould; dose 10% (w/w), week 7): 3500 cfu/gram | Mould Count (mould; dose 10% (w/w), week 8): <10 cfu/gram | Mould Count (mould; dose 10% (w/w), week 9): <10 cfu/gram
